Key:
[1] = tested on: MDS/AML cell lines (MDSL, TF1, THP1, HL60); test: Viable cell growth (trypan blue exclusion) of MDS/AML cell lines; assay type: cell-based, human; details: IRAK-Inh 10 μM, ABT-263 0.1 μM
Description: Acute myeloid leukemic cell lines, HL60, THP1, and TF-1 were purchased from the American Type Culture Collection. MOLM13 were purchased from AddexBio. The myelodysplastic cell line, MDS-L, was provided by Dr. Kaoru Tohyama (Kawasaki Medical School, Okayama, Japan) (Matsuoka et al., 2010). […] Additionally, both the MDSL and TF-1 cell lines were cultured in the presence of 10 ng/mL human recombinant IL-3 (Stemcell Technologies).

MDSL cells = test: MDSL xenograft, cells pre-treated in vitro, NSGS mice; assay type: in vivo; details: MDSL treated in vitro with IRAK-Inh 10 μM and/or ABT-263 0.1 μM; DMSO 28 days
Description: Xenograftment of NOD/SCID-IL2Rγ(NSG) and NSG-hSCF/hGM-CSF/hIL3 (NSGS) MDSL cells (1×10^6-5×10^6) were injected into the tail veins of 8-week old sublethally irradiated ([…]) NSG or NSG animals engineered to express human SCF, GM-CSF, and IL3 (NSGS) as previously described (Wunderlich et al., 2010). Mice were monitored by performing complete blood counts (Drew Hemavet 950FS). Following red cell lysis, human MDSL cells were identified by hCD45-FITC staining. In vivo delivery of IRAK-Inh approach is adapted from previous reports (Yang et al., 2011): IRAK-Inh was diluted in DMSO (5 mM) and further dissolved in sterile phosphate buffered saline (PBS; pH 7.2). Animals were injected i.p. with 2.12 mg/kg IRAK-Inh 3× weekly.
To determine whether IRAK-Inh can delay human MDS-like disease in vivo, MDSL were pre-treated with IRAK-Inh (10 μM) for 24 hrs in vitro and subsequently injected intravenously (i.v.) into NSG (5×10^6 cells) and NSGS (1×10^6 cells) recipient mice (FIG. 4A). This approach permitted us to evaluate the cell autonomous effect of IRAK-Inh on MDS cell viability and engraftment without altering endogenous IRAK1 function in the mouse.
Moreover, we investigated whether combined IRAK1 and BCL2 inhibition could delay human MDS-like disease in vivo. MDSL cells were treated with IRAK-Inh (10 μM) and/or ABT-263 (0.1 μM) for 48 hrs in vitro and subsequently injected i.v. into NSGS mice (FIG. 4A).

normal CD34+ cells = test: Colony formation in methylcellulose, normal CD34+ cells; details: individual or combination treatment
Description: The effect of IRAK-Inh on leukemic progenitor function was evaluated in methylcellulose containing IRAK-Inh. […] As an alternative approach, MDS/AML cells were pre-treated with IRAK-Inh for 24 hours and then plated in methylcellulose.

With `CC1(C)CCC(c2ccc(Cl)cc2)=C(CN2CCN(c3ccc(C(=O)NS(=O)(=O)c4ccc(N[C@H](CCN5CCOCC5)CSc5ccccc5)c(S(=O)(=O)C(F)(F)F)c4)cc3)CC2)C1` [ABT-263] the “sensitivity of HL60 cells” value ([1]; HL60, alone or combined) was “refractory”, the “MDS/AML cell line growth and survival” value ([1]; alone or co-treatment) was “modest effects” and the median survival (MDSL cells) was ~35 days. For the same compound, the “viability and hematopoietic progenitor function of normal CD34+ cells” value (normal CD34+ cells) was “not affected”.

Source: US9855273B2, “Combination therapy for MDS” (priority 2013, dated 2018)
